Measured values reported in patent US6737383B1, “Herbicidal oxadiazolidines” (priority 1999, dated 2004).

What was measured:
bedstraw = test: Test B pre/postemergence bedstraw; assay type: in vivo, Galium aparine
How it was run: (§1)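 Response is a visual 0-to-10 score relative to untreated plants, where 0 means no effect and 10 means complete control, taken twelve to sixteen days after application. Treatments went onto soil at planting and onto foliage of 1- to 4-leaf plants, using a surfactant-containing non-phytotoxic solvent.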

blackgrass = test: Test B pre/postemergence blackgrass; assay type: in vivo, Alopecurus myosuroides
How it was run: as §1

surinam grass = test: Test B pre/postemergence surinam grass; assay type: in vivo, Brachiaria decumbens
How it was run: as §1

corn = test: Test B pre/postemergence corn; assay type: in vivo, Zea mays
How it was run: as §1

crabgrass = test: Test B pre/postemergence crabgrass; assay type: in vivo, Digitaria sanguinalis
How it was run: as §1

giant foxtail = test: Test B pre/postemergence giant foxtail; assay type: in vivo, Setaria faberii
How it was run: as §1

morningglory = test: Test B pre/postemergence morningglory; assay type: in vivo, Ipomoea hederacea
How it was run: as §1

pigweed = test: Test B pre/postemergence pigweed; assay type: in vivo, Amaranthus retroflexus
How it was run: as §1

rape = test: Test B pre/postemergence rape; assay type: in vivo, Brassica napus
How it was run: as §1

sugar beet = test: Test B pre/postemergence sugar beet; assay type: in vivo, Beta vulgaris
How it was run: as §1

wheat = test: Test B pre/postemergence wheat; assay type: in vivo, Triticum aestivum
How it was run: as §1

wild oat = test: Test B pre/postemergence wild oat; assay type: in vivo, Avena fatua
How it was run: as §1

purple nutsedge = test: Test B pre/postemergence purple nutsedge; assay type: in vivo, Cyperus rotundus
How it was run: as §1

rice = test: Test B flood test rice; assay type: in vivo, Oryza sativa
How it was run: (§2)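 Plants were grown to the 2-leaf stage before treatment with test chemical, then held in a greenhouse for twelve to sixteen days. Injury was visually rated against untreated controls on a 0–10 scale, where 0 is no effect and 10 is complete control.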

smallflower flatsedge = test: Test B flood test smallflower flatsedge; assay type: in vivo, Cyperus difformis
How it was run: as §2

bamyardgrass = test: Test B flood test barnyardgrass; assay type: in vivo, Echinochloa crus-galli
How it was run: as §2

[1] = Postemergence, Rate 62 g/ha, scale 0 to 10, 0 is no effect, 10 is complete control
[2] = Postemergence, Rate 250 g/ha, scale 0 to 10, 0 no effect, 10 complete control
[3] = Preemergence, Rate 62 g/ha, scale 0 to 10 (0 no effect, 10 complete control)
[4] = Preemergence, Rate 125 g/ha, scale 0 to 10 (0 no effect, 10 complete control)
[5] = Preemergence, Rate 250 g/ha, scale of 0 to 10 where 0 is no effect and 10 is complete control
[6] = Preemergence, Rate 500 g/ha, scale 0 (no effect) to 10 (complete control)
[7] = Rate 125 g/ha, Postemergence, scale 0 to 10, 0 no effect, 10 complete control
[8] = Rate 500 g/ha, Postemergence, scale 0 to 10, 0 no effect, 10 complete control
[9] = Rate 125 g/ha, Postemergence section (flood test species), scale 0 to 10, 0 no effect, 10 complete control
[10] = Rate 500 g/ha, listed under Postemergence (flood test species), scale 0 to 10, 0 no effect, 10 complete control
[11] = flood test, listed under Postemergence, Rate 250 g/ha, scale 0 to 10, 0 no effect, 10 complete control

## Cc1ccccc1-n1c(=O)on(C(=O)N(c2cc(F)cc(F)c2)C(C)C)c1=O [Compound 67]
bedstraw; [1]
  Bedstraw plant response rating: 0
bedstraw; [2]
  Bedstraw plant response rating: 7
bedstraw; [3]
  Bedstraw plant response rating: 0
bedstraw; [4]
  Plant response rating, Bedstraw: 0
bedstraw; [5]
  Plant response rating, Bedstraw: 0
bedstraw; [6]
  Bedstraw plant response rating: 0
bedstraw; [7]
  Bedstraw plant response rating: 5
bedstraw; [8]
  Bedstraw plant response rating: 8
blackgrass; [1]
  Blackgrass plant response rating: 0
blackgrass; [2]
  Blackgrass plant response rating: 0
blackgrass; [3]
  Blackgrass plant response rating: 0
blackgrass; [4]
  Plant response rating, Blackgrass: 0
blackgrass; [5]
  Plant response rating, Blackgrass: 2
blackgrass; [6]
  Blackgrass plant response rating: 2
blackgrass; [7]
  Blackgrass plant response rating: 0
blackgrass; [8]
  Blackgrass plant response rating: 0
Surinam grass; [1]
  B. signalgrass plant response rating: 0
Surinam grass; [2]
  B. signalgrass plant response rating: 0
Surinam grass; [3]
  B. signalgrass plant response rating: 0
Surinam grass; [4]
  Plant response rating, B. signalgrass: 0
Surinam grass; [5]
  Plant response rating, B. signalgrass: 0
Surinam grass; [6]
  B. signalgrass plant response rating: 2
Surinam grass; [7]
  B. signalgrass plant response rating: 0
Surinam grass; Rate 500 g/ha, Postemergence, scale of 0 to 10 where 0 is no effect and 10 is complete control
  B. signalgrass plant response rating: 0
corn; [1]
  Corn plant response rating: 0
corn; [2]
  Corn plant response rating: 0
corn; [3]
  Corn plant response rating: 0
corn; [4]
  Plant response rating, Corn: 0
corn; [5]
  Plant response rating, Corn: 0
corn; [6]
  Corn plant response rating: 0
corn; [7]
  Corn plant response rating: 0
corn; [8]
  Corn plant response rating: 0
crabgrass; [1]
  Crabgrass plant response rating: 0
crabgrass; [2]
  Crabgrass plant response rating: 0
crabgrass; [3]
  Crabgrass plant response rating: 2
crabgrass; [4]
  Plant response rating, Crabgrass: 4
crabgrass; [5]
  Plant response rating, Crabgrass: 4
crabgrass; [6]
  Crabgrass plant response rating: 7
crabgrass; [7]
  Crabgrass plant response rating: 0
crabgrass; [8]
  Crabgrass plant response rating: 0
Giant foxtail; [1]
  Giant foxtail plant response rating: 0
Giant foxtail; [2]
  Giant foxtail plant response rating: 0
Giant foxtail; [3]
  Giant foxtail plant response rating: 3
Giant foxtail; [4]
  Plant response rating, Giant foxtail: 7
Giant foxtail; [5]
  Plant response rating, Giant foxtail: 8
Giant foxtail; [6]
  Giant foxtail plant response rating: 8
Giant foxtail; [7]
  Giant foxtail plant response rating: 0
Giant foxtail; [8]
  Giant foxtail plant response rating: 0
morningglory; [1]
  Morningglory plant response rating: 0
morningglory; [2]
  Morningglory plant response rating: 2
morningglory; [3]
  Morningglory plant response rating: 0
morningglory; [4]
  Plant response rating, Morningglory: 0
morningglory; [5]
  Plant response rating, Morningglory: 0
morningglory; [6]
  Morningglory plant response rating: 0
morningglory; [7]
  Morningglory plant response rating: 2
morningglory; [8]
  Morningglory plant response rating: 6
pigweed; [1]
  Redroot pigweed plant response rating: 0
pigweed; [2]
  Redroot pigweed plant response rating: 0
pigweed; [3]
  Redroot pigweed plant response rating: 4
pigweed; [4]
  Plant response rating, Redroot pigweed: 4
pigweed; [5]
  Plant response rating, Redroot pigweed: 9
pigweed; [6]
  Redroot pigweed plant response rating: 10
pigweed; [7]
  Redroot pigweed plant response rating: 0
pigweed; [8]
  Redroot pigweed plant response rating: 4
rape; [1]
  Rape plant response rating: 0
rape; [2]
  Rape plant response rating: 0
rape; [3]
  Rape plant response rating: 0
rape; [4]
  Plant response rating, Rape: 0
rape; [5]
  Plant response rating, Rape: 0
rape; [6]
  Rape plant response rating: 0
rape; [7]
  Rape plant response rating: 0
rape; [8]
  Rape plant response rating: 2
Sugar beet; [1]
  Sugarbeets plant response rating: 0
Sugar beet; [2]
  Sugarbeets plant response rating: 0
Sugar beet; [3]
  Sugarbeets plant response rating: 0
Sugar beet; [4]
  Plant response rating, Sugarbeets: 0
Sugar beet; [5]
  Plant response rating, Sugarbeets: 0
Sugar beet; [6]
  Sugarbeets plant response rating: 3
Sugar beet; [7]
  Sugarbeets plant response rating: 0
Sugar beet; [8]
  Sugarbeets plant response rating: 2
wheat; [1]
  Wheat plant response rating: 0
wheat; [2]
  Wheat plant response rating: 0
wheat; [3]
  Wheat plant response rating: 0
wheat; [4]
  Plant response rating, Wheat: 0
wheat; [5]
  Plant response rating, Wheat: 0
wheat; [6]
  Wheat plant response rating: 0
wheat; [7]
  Wheat plant response rating: 0
wheat; [8]
  Wheat plant response rating: 0
Wild oat; [1]
  Wild oats plant response rating: 0
Wild oat; [2]
  Wild oats plant response rating: 0
Wild oat; [3]
  Wild oats plant response rating: 0
Wild oat; [4]
  Plant response rating, Wild oats: 0
Wild oat; [5]
  Plant response rating, Wild oats: 0
Wild oat; [6]
  Wild oats plant response rating: 2
Wild oat; [7]
  Wild oats plant response rating: 0
Wild oat; [8]
  Wild oats plant response rating: 0
Purple nutsedge; [1]
  Nutsedge plant response rating: 0
Purple nutsedge; [2]
  Nutsedge plant response rating: 0
Purple nutsedge; [3]
  Nutsedge plant response rating: 0
Purple nutsedge; [4]
  Plant response rating, Nutsedge: 0
Purple nutsedge; [5]
  Plant response rating, Nutsedge: 0
Purple nutsedge; [6]
  Nutsedge plant response rating: 0
Purple nutsedge; [7]
  Nutsedge plant response rating: 0
Purple nutsedge; [8]
  Nutsedge plant response rating: 0
rice; [1]
  Rice plant response rating: 0
rice; [9]
  Rice plant response rating: 0
rice; [10]
  Rice plant response rating: 0
rice; [11]
  Rice plant response rating: 0
Smallflower flatsedge; [1]
  S. Flatsedge plant response rating: 0
Smallflower flatsedge; [9]
  S. Flatsedge plant response rating: 0
Smallflower flatsedge; [10]
  S. Flatsedge plant response rating: 0
Smallflower flatsedge; [11]
  S. Flatsedge plant response rating: 0
bamyardgrass; [1]
  Barnyardgrass plant response rating: 0
bamyardgrass; [9]
  Barnyardgrass plant response rating: 0
bamyardgrass; [10]
  Barnyardgrass plant response rating: 0
bamyardgrass; [11]
  Barnyardgrass plant response rating: 0
